Experimental data taken from patent US9409858B2, “Selective histone deactylase 6 inhibitors” (H. LEE MOFFITT CANCER CENTER AND RESEARCH INSTITUTE, INC., priority 2012, dated 2016).
Entries after “also recorded” stand apart in the source; their conditions may differ.

Assays:
HDAC3 = HDAC3 (Homo sapiens (Human), UniProt O15379); assay: HDAC isoform profile, HDAC3; format: biochemical; settings: Table 3 isoform profile
[1] = system: histone H3 acetylation in B16 melanoma cells; assay: Histone acetylation Western blot assay; format: cell-based, murine
Description: (§1) […]. B16 melanoma cells were plated at 10^5 cells/well in 12 well plates and allowed to adhere overnight. A 50 mM stock of compound was then added by serial dilutions in complete medium to the indicated concentrations. Cells were incubated for 24 h under humidified conditions (37° C., 5% CO2). Wells were then washed with cold PBS, and cells were lysed in a buffer containing 10 mM Tris-HCl pH 8.0, 10% SDS, […], 100 mM DTT, and 1× protease inhibitor (Roche). Cells were lysed for 30 min on ice and then sonicated for 8 min (8 cycles of 30 s on/30 s rest). Cells were then boiled for 10 min with 6× gel loading buffer and resolved on 4-15% gradient gels and subsequently transferred onto nitrocellulose membranes. Membranes were blocked with 5% milk in PBS-T and detection of specific antigens using antibodies against acetyl-H3 and H3 (Cell Signaling), and acetyl-α-tubulin and α-tubulin (Sigma). Bands were detected by scanning blots with LI-COR Odyssey imaging system using both 700 and 800 channels.

[2] = system: acetyl α-tubulin in B16 melanoma cells; assay: Tubulin acetylation Western blot assay; format: cell-based, murine; settings: low nanomolar treatment, 24 h
Description: as §1

[3] = target: human, recombinant full-length HDAC1 (Homo sapiens (Human), UniProt Q13547); assay: HDAC inhibition assay, HDAC1; format: biochemical
Chain of human, recombinant full-length HDAC1 (Q13547 whole entry): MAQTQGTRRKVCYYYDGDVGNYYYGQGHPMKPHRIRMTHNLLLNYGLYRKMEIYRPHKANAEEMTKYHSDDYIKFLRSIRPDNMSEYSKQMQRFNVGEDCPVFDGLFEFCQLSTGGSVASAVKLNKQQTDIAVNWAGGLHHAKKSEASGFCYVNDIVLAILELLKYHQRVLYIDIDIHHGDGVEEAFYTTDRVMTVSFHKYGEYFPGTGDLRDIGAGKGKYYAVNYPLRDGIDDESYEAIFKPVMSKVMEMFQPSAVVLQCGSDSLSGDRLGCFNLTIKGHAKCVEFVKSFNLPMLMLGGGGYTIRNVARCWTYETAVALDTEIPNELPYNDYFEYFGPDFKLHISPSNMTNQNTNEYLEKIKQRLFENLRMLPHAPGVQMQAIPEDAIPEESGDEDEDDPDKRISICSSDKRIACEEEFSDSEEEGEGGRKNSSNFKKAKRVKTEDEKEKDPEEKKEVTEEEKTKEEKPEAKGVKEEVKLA

[4] = target: human, recombinant full-length HDAC6 (Homo sapiens (Human), UniProt Q9UBN7); assay: HDAC inhibition assay, HDAC6; format: biochemical;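 also: recombinant full-length human HDAC1 and HDAC6 made in Sf9 cells, compound preincubated 5-10 min then substrate reaction 2 h at 30 °C, ten threefold dilutions from 30 µM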
Chain of human, recombinant full-length HDAC6 (Q9UBN7 whole entry): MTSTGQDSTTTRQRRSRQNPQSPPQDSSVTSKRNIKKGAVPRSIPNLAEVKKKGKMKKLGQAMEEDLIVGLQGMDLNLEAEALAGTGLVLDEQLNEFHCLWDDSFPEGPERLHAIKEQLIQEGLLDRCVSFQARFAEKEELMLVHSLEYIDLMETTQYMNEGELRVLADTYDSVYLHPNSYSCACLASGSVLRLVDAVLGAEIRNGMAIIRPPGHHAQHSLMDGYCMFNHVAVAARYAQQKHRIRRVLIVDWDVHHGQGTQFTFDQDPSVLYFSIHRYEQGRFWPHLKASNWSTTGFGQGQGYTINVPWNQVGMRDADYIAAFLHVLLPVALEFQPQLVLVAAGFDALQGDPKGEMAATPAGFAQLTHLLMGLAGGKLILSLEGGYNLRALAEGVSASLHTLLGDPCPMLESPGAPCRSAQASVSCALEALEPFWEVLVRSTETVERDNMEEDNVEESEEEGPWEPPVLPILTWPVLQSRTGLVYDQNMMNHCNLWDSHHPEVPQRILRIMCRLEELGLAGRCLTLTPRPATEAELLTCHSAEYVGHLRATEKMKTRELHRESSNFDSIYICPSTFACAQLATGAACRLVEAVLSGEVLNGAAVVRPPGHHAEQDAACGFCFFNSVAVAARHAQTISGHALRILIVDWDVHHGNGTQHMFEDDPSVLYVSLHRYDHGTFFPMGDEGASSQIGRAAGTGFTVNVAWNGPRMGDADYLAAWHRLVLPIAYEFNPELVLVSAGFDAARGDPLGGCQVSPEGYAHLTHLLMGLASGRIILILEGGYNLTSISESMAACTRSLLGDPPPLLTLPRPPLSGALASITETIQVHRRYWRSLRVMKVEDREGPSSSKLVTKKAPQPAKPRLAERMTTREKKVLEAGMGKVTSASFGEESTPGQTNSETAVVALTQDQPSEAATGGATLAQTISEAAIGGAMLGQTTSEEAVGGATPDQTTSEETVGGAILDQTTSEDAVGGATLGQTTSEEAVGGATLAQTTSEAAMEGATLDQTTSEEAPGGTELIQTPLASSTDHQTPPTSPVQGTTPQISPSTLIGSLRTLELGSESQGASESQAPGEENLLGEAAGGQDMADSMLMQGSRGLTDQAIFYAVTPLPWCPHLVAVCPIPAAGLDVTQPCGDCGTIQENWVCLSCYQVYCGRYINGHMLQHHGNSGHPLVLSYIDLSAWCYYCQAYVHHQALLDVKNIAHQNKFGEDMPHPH

[5] = system: B16 murine melanoma cells; assay: B16 melanoma cell growth inhibition assay (MTS); format: cell-based
Description: B16 murine melanoma cells were plated at 5×10^3/well in 96 well flat bottom plates. The following day, media was changed to that containing various concentrations of HDACi or matched DMSO vehicle concentrations diluted in complete medium done in triplicate. Cells were incubated for 48 hours at 37° C. and 5% CO2. […] Briefly, 20 μL of reagent were added per well and incubated at 37° C. for 3 hours. […] All values were then normalized and expressed as a percentage of medium control (100%).

macrophages = assay: Immunological effects upon macrophages; format: cell-based
MCL = assay: Antitumor effect in MCL-bearing mice; format: in vivo
[6] = system: JAK2/STAT3 phosphorylation; assay: JAK2/STAT3 phosphorylation in B16 murine melanoma cells in vivo
[7] = system: naIve and anergic T-cells; assay: In vitro antigen-presenting studies with treated macrophages; format: cell-based
[8] = system: STAT3 phosphorylation and recruitment to the IL-10 gene promotor; assay: STAT3 phosphorylation and recruitment to the IL-10 gene promotor in APCs; format: cell-based
melanoma = assay: Anti-melanoma effect in vivo; settings: alone or in combination with anti-CLTA4
[9] = system: antigen-specific T-cell responses; assay: Antigen-specific T-cell responses to vaccination in vivo; set-up: species or system mice; settings: in vivo treatment
[10] = Table 1, mean of two experiments ± standard deviation, 10-point enzyme assay

Chain of HDAC3 (O15379 whole entry, canonical isoform): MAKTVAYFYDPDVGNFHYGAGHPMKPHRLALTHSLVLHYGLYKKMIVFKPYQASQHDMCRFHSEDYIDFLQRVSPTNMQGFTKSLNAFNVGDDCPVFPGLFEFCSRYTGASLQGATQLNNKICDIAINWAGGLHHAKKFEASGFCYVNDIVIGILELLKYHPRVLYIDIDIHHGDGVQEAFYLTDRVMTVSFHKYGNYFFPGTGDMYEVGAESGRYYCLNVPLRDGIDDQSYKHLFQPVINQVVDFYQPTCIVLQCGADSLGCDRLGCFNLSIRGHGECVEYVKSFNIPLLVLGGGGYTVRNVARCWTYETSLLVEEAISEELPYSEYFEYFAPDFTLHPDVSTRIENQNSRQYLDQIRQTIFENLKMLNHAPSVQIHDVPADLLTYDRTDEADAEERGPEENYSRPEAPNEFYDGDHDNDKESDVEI
Chain of HDAC3 (Q9Y618 395-489 partner): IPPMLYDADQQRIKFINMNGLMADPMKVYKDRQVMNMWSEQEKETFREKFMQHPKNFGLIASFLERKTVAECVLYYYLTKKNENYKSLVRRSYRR

Q: Which IC50 (HDAC3) does the source give for CCCCN(Cc1ccc(C(=O)NO)cc1)C(=O)Nc1ccccc1 [Compound 5g, 4-((1-butyl-3-phenylureido)methyl)-N-hydroxybenzamide] here?
A: 6680 ± 1750 nM

Q: And the “histone H3 acetylation” value ([1]; concentrations of 1 and 10 μM)?
A: observable increase in histone H3 acetylation

Q: And the “histone H3 acetylation” value ([1]; low nanomolar treatment, 24 h)?
A: without a concamanent elevation of histone H3 acetylation

Q: What about the “acetyl α-tubulin levels” value [2] of the same compound?
A: dose-dependant increase of acetyl α-tubulin levels; also recorded: increased acetyl-tubulin levels

Q: How did the IC50 ([3]; Table 2, cyclic urea compounds) turn out when COc1ccccc1N1C(=O)N(Cc2ccc(C(=O)NO)cc2)C(C)(C)C1=O [Compound 10a] was run?
A: 28600 nM

Q: What about the “Fold Selective (HDAC1/HDAC6)” value ([4]; Table 2, cyclic urea compounds) of the same compound?
A: 386

Q: What about the IC50 ([4]; Table 2, cyclic urea compounds) of the same compound?
A: 74.2 nM

Q: Which IC50 [3, 10] does the source give for COc1ccc(NC(=O)NCc2ccc(C(=O)NO)cc2)cc1 [Compound 9a] here?
A: 1060 nM

Q: What about the “Fold Selective (HDAC1/HDAC6)” value ([4]; Table 1) of the same compound?
A: 128

Q: What about the IC50 [4, 10] of the same compound?
A: 8.3 nM

Q: CCCCN(C(=O)NCc1ccc(C(=O)NO)cc1)c1ccccc1 [Compound 8a, 4-((3-butyl-3-phenylureido)methyl)-N-hydroxybenzamide] was tested. Which IC50 [3, 10] did it give?
A: 8120 ± 600 nM

Q: And the “Fold Selective (HDAC1/HDAC6)” value ([4]; Table 1)?
A: 322

Q: And the IC50 [4, 10]?
A: 25.2 ± 2.5 nM

Q: Which “growth inhibition of B16 melanoma cells (in words)” value [5] does the source give for O=C(NO)c1ccc(CN(CCc2ccccc2)C(=O)Nc2ccccc2)cc1 [Compound 5h, N-hydroxy-4-((1-phenethyl-3-phenylureido)methyl)benzamide] here?
A: capable of inhibiting the growth of B16 melanoma cell line

Q: And the IC50 [3, 10]?
A: 3120 ± 640 nM

Q: What about the “Fold Selective (HDAC1/HDAC6)” value ([4]; Table 1) of the same compound?
A: 222

Q: And the IC50 [4, 10]?
A: 14 ± 0.75 nM

Q: What does the source list for COc1ccccc1NC(=O)NCc1ccc(C(=O)NO)cc1 [Compound 1]?
A: IC50 [3, 10]: 265 ± 59 nM; Fold Selective (HDAC1/HDAC6) ([4]; Table 1): 2; IC50 [4, 10]: 139 ± 27 nM

Q: Which IC50 [3, 10] does the source give for COCCN(Cc1ccc(C(=O)NO)cc1)C(=O)Nc1ccccc1 [Compound 5f, N-hydroxy-4-((1-(2-methoxyethyl)-3-phenylureido)methyl)benzamide] here?
A: 2250 ± 420 nM

Q: And the “Fold Selective (HDAC1/HDAC6)” value ([4]; Table 1)?
A: 243

Q: What about the IC50 [4, 10] of the same compound?
A: 9.26 ± 0.66 nM

Q: Which IC50 ([3]; Table 2, cyclic urea compounds) does the source give for CC(C)[C@@H]1C(=O)N(c2ccccc2)C(=O)N1Cc1ccc(C(=O)NO)cc1 [Compound 10b] here?
A: 11800 nM

Q: What about the “Fold Selective (HDAC1/HDAC6)” value ([4]; Table 2, cyclic urea compounds) of the same compound?
A: 531

Q: What about the IC50 ([4]; Table 2, cyclic urea compounds) of the same compound?
A: 22.2 nM

Q: With Cc1ccnc(NC(=O)NCc2ccc(C(=O)NO)cc2)c1 [Compound 9b] as the compound, how does the IC50 [3, 10] read?
A: 579 nM

Q: What about the “Fold Selective (HDAC1/HDAC6)” value ([4]; Table 1) of the same compound?
A: 263

Q: What about the IC50 [4, 10] of the same compound?
A: 2.2 nM

Q: With COCCCN(Cc1ccc(C(=O)NO)cc1)C(=O)Nc1ccccc1 [Compound 5e, N-hydroxy-4-((1-(3-methoxypropyl)-3-phenylureido)methyl)benzamide] as the compound, how does the IC50 [3, 10] read?
A: 5180 ± 130 nM

Q: And the “Fold Selective (HDAC1/HDAC6)” value ([4]; Table 1)?
A: 443

Q: And the IC50 [4, 10]?
A: 11.7 ± 1.7 nM

Q: How did the IC50 [3, 10] turn out when Cc1cc(NC(=O)NCc2ccc(C(=O)NO)cc2)no1 [Compound 9c] was run?
A: 1000 nM

Q: What about the “Fold Selective (HDAC1/HDAC6)” value ([4]; Table 1) of the same compound?
A: 145

Q: What about the IC50 [4, 10] of the same compound?
A: 6.9 nM

Q: COc1ccccc1NC(=O)N(CCCN(C)C)Cc1ccc(C(=O)NO)cc1 [Compound 5a, 4-((1-(3-(dimethylamino)propyl)-3-(2-methoxyphenyl)ureido)methyl)-N-hydroxybenzamide] was tested. Which IC50 [3, 10] did it give?
A: 2550 ± 540 nM

Q: What about the “Fold Selective (HDAC1/HDAC6)” value ([4]; Table 1) of the same compound?
A: 6

Q: And the IC50 [4, 10]?
A: 458 ± 64 nM

Q: With COc1ccccc1NC(=O)N(CCc1c[nH]c2ccccc12)Cc1ccc(C(=O)NO)cc1 [Compound 5c, 4-((1-(2-(1H-indol-3-yl)ethyl)-3-(2-methoxyphenyl)ureido)methyl)-N-hydroxybenzamide] as the compound, how does the IC50 [3, 10] read?
A: 8950 ± 770 nM

Q: What about the “Fold Selective (HDAC1/HDAC6)” value ([4]; Table 1) of the same compound?
A: 19

Q: What about the IC50 [4, 10] of the same compound?
A: 468 ± 130 nM

Q: For COc1ccccc1NC(=O)N(CCCO)Cc1ccc(C(=O)NO)cc1 [Compound 5b, N-hydroxy-4-((1-(3-hydroxypropyl)-3-(2-methoxyphenyl)ureido)methyl)-benzamide], which IC50 [3, 10] is on record?
A: 1910 ± 570 nM

Q: What about the “Fold Selective (HDAC1/HDAC6)” value ([4]; Table 1) of the same compound?
A: 803

Q: What about the IC50 [4, 10] of the same compound?
A: 2.38 ± 0.38 nM

Q: How did the IL-10 production (macrophages) turn out when CN1CCc2c(c3ccccc3n2Cc2ccc(C(=O)NO)cc2)C1 [Tubastatin A] was run?
A: inhibits IL-10 production

Q: And the “expression of co-stimulatory molecules” value (macrophages)?
A: increased the expression of co-stimulatory molecules

Q: And the antitumor effect (MCL)?
A: strong antitumor effect

Q: What about the JAK2/STAT3 phosphorylation [6] of the same compound?
A: inhibits JAK2/STAT3 phosphorylation

Q: And the “activation of T-cells by treated macrophages” value [7]?
A: better activators of naIve T-cells and restore the responsiveness of anergic T-cells

Q: What about the “STAT3 phosphorylation and recruitment to the IL-10 gene promotor” value [8] of the same compound?
A: decreased STAT3 phosphorylation and recruitment to the IL-10 gene promotor

Q: What about the anti-melanoma effect (melanoma) of the same compound?
A: anti-melanoma effect

Q: What about the “antigen-specific T-cell responses to vaccination” value [9] of the same compound?
A: augments antigen-specific CD4+ T-cell responses to vaccination

Q: And the “antigen-specific T-cell responses to vaccination” value ([9]; listed as Tubastatin-A)?
A: enhances antigen-specific T-cell responses to vaccination

Q: Which IC50 ([3]; Table 2, cyclic urea compounds) does the source give for O=C(NO)c1ccc(CN2C(=O)N[C@@H](Cc3ccccc3)C2=O)cc1 [Compound 11a] here?
A: 7560 nM

Q: What about the “Fold Selective (HDAC1/HDAC6)” value ([4]; Table 2, cyclic urea compounds) of the same compound?
A: 295

Q: What about the IC50 ([4]; Table 2, cyclic urea compounds) of the same compound?
A: 25.6 nM

Q: How did the IC50 [3, 10] turn out when COc1ccccc1NC(=O)N(CCc1ccc(O)cc1)Cc1ccc(C(=O)NO)cc1 [Compound 5d, N-hydroxy-4-((1-(4-hydroxyphenethyl)-3-(2-methoxyphenyl)ureido)methyl)-benzamide] was run?
A: 1690 ± 120 nM

Q: And the “Fold Selective (HDAC1/HDAC6)” value ([4]; Table 1)?
A: 292

Q: What about the IC50 [4, 10] of the same compound?
A: 5.8 ± 0.5 nM
